# Patent publication US10738024B2, “Compounds for treatment of angiogenesis-mediated diseases” (Indiana University Research and Technology Corporation, priority 2013, dated 2020)
# What was measured:
# cyclooxygenases 1 and 2 = settings: purified enzymes; cited from earlier work
# [1] = system: pathogenic neovascularization; settings: in vivo; cited from earlier work
# [2] = system: choroidal neovascularization; settings: murine; cited from earlier work
# HUVECs [3] = settings: cited from earlier work
# prostaglandin synthesis = settings: microsome assay; cited from earlier work
# [4] = system: new vessel growth induced by bFGF; settings: chick chorioallantoic membrane model; cited from earlier work
# [5] = system: reactive oxygen species (ROS); settings: keratinocytes exposed to UV radiation; cited from earlier work
# NF-κB = settings: keratinocytes exposed to UV radiation; cited from earlier work
# retina = settings: injection of 10 μM into the vitreous of normal adult mice; cited from earlier work
# Cdc2 (CDK1) = settings: cited from earlier work
# JNK, p38 MAPK, ERK = settings: keratinocytes exposed to UV radiation; cited from earlier work
# p21^WAF1 (CDKN1A) = settings: natural source compound; cited from earlier work
# TNF-α, IL-6 and IL-8 = settings: keratinocytes exposed to UV radiation; cited from earlier work
# [6] = system: Y-79 retinoblastoma cells; assay: ALAMARBLUE proliferation assay in Y-79 retinoblastoma cells; type: cell-based; settings: 50% growth inhibitory concentration, 48 hours
# Method: (§1) For proliferation assays, cells (2500 per well) were seeded in a 96-well clear bottom black polystyrene plate in a total volume of 100 μL. HUVECs and HRECs were grown in EGM-2 and CSC+ media respectively, while 92-1 and Y79 cells were maintained in RPMI+10% FBS, penicillin/streptomycin and RB medium (IMDM+10% FBS+penicillin/streptomycin+10 μg/mL insulin+55 μM β-mercaptoethanol) respectively. After 24 hours of incubation of the plate at 37° C., the compounds were dissolved in DMSO and added in the concentration range of 500 μM to 0.5 nM. The plate was then incubated at 37° C. and 5% CO2 conditions for 48 hours before adding 11.1 μL of alamar blue reagent for each well. Four hours after the addition of ALAMARBLUE® reagent, fluorescence readings with excitation and emission wavelengths of 560 nm and 590 nm respectively were taken and the data was analyzed in GraphPad Prism software. The dose response curves were generated and the GI50 values were calculated using the equation: Y=100/(1+10^(X−Log GI50)) (Table 1).
# HUVECs [7] = assay: ALAMARBLUE proliferation assay in HUVECs; type: cell-based, human; settings: Homo sapiens, HUVEC, 48 h, 50% growth inhibitory concentration, alamarBlue
# Method: (§2) Particularly, in a 96-well clear bottom black plate, cells (2,500 cells per well) were seeded in a total volume of 100 μL EGM-2. After 24 hours of incubation of the plate at 37° C. and 5% CO2, a DMSO solution of synthetic cremastranone (1) or SH-11052 (2) was added in the concentration range of 0.5 nM to 500 μM (final DMSO concentration=1%). The plate was then further incubated for 48 hours before adding 11.1 μL of ALAMARBLUE® reagent to each well. Four hours after the addition of ALAMARBLUE®, fluorescence readings with excitation and emission wavelengths of 560 nm and 590 nm, respectively, were taken and the data were analyzed in GraphPad Prism software (v. 6.0). Dose response curves were generated and the GI50 values were calculated using the following equation: Y=100/(1+10^(X−Log GI50)).
# as §1
# HRECs = assay: ALAMARBLUE proliferation assay in HRECs; type: cell-based, human; settings: Homo sapiens, HREC; 50% growth inhibitory concentration, 48 hours, alamarBlue; read-out: GI50 HREC
# Method: as §2, §1
# [8] = system: 92-1 uveal melanoma cells; assay: ALAMARBLUE proliferation assay in 92-1 uveal melanoma cells; type: cell-based; settings: 50% growth inhibitory concentration, 48 hours, alamarBlue
# Method: as §1
Compound,GI50 [6] [µM],GI50 [8] [µM],GI50 (HUVECs [7]) [µM],GI50 (HRECs) [µM],also measured
"COc1ccc(CC2COc3cc(O)c(OC)c(O)c3C2=O)cc1O (stereo not shown) [cremastranone, 5,7-dihydroxy-3-(3-hydroxy-4-methoxybenzyl)-6-methoxychroman-4-one]",–,–,–,–,"function of cyclooxygenases 1 and 2 (cyclooxygenases 1 and 2): without marked effects; blocking pathogenic neovascularization, oxygen-induced retinopathy model [1]: showed efficacy; blocking pathogenic neovascularization, laser photocoagulation model of choroidal neovascularization [2]: showed efficacy; 50% growth inhibitory (GI50) concentration value in HUVEC proliferation assay (HUVECs [3]; reported for compound isolated from C. appendiculata): low micromolar range; proliferation of HUVECs (HUVECs [3]; via G2/M phase cell cycle arrest): blockade of the proliferation; prostaglandin synthesis from arachidonic acid (prostaglandin synthesis): blocked prostaglandin synthesis; blocking new vessel growth induced by bFGF [4]: as effective as retinoic acid; production of reactive oxygen species (ROS) [5]: blocked; nuclear translocation of NF-κB (NF-κB): blocked nuclear translocation; apoptosis of retinal cells (retina): nor did it induce apoptosis; cytotoxic or inflammatory effects on the retina (retina): no cytotoxic or inflammatory effects; expression of Cdc2 (CDK1) (Cdc2 (CDK1)): down-regulated; phosphorylation of MAPKs (JNK, p38, ERK) (JNK, p38 MAPK, ERK): decreased phosphorylation; expression of p21^WAF1 (CDKN1A) (p21^WAF1 (CDKN1A)): induces expression; production of cytokines TNF-α, IL-6 and IL-8 (TNF-α, IL-6 and IL-8): blocked"
COc1cc(O)c(C(=O)/C=C/c2ccccc2)c(OC)c1OC [Compound 3b],> 100,> 100,> 100,> 100,–
"COc1ccc(/C=C2\CCOc3cc(OC)c(OC)c(OC)c3C2=O)cc1O [Compound 12, (E)-4-(3-hydroxy-4-methoxybenzylidene)-6,7,8-trimethoxy-3,4-dihydrobenzo[b]oxepin-5(2H)-one]",33,145,30,35,–
COc1cc2c(c(OC)c1OC)C(=O)/C(=C/c1ccc(OCc3ccccc3)cc1)CO2 [Compound 11i],465,152,284,> 500,–
COC(=O)c1cc(CC2COc3cc(OC)c(OC)c(OC)c3C2=O)ccc1OC (stereo not shown) [Compound 6d],40,> 250,27,13,–
"COc1ccc(Cc2coc3cc(OC)c(OC)c(OC)c3c2=O)cc1O [Compound 9a, 3-(3′-hydroxy-4′-methoxybenzyl)-5,6,7-trimethoxy-4H-chromen-4-one]",> 100,> 100,> 100,> 100,–
"COc1cc2c(c(O)c1OC)C(=O)C(Cc1ccccc1)CO2 (stereo not shown) [Compound 8b, 3-benzyl-5-hydroxy-6,7-dimethoxychroman-4-one]",> 100,> 100,40,> 100,–
COc1ccc(CC2COc3cc(OC)c(O)c(O)c3C2=O)cc1OC(=O)c1ccccc1 (stereo not shown) [Compound 8c],> 50,51,> 100,> 100,–
COc1cc2c(c(OC)c1OC)C(=O)C(Cc1ccc(O)c(O)c1)CO2 (stereo not shown) [Compound 6e],98,> 250,77,> 250,–
"COc1ccc(CC2COc3cc(O)c(O)c(O)c3C2=O)cc1O (stereo not shown) [Compound 8d, 5,6,7-trihydroxy-3-(3-hydroxy-4-methoxybenzyl)chroman-4-one]",> 500,> 500,124,135,–

# Second part, led by results:
GI50 [6] [µM],GI50 [8] [µM],Compound,GI50 (HUVECs [7]) [µM],GI50 (HRECs) [µM],also measured
4.2,> 250,COc1cc(OC)c2c(c1)OCC(Cc1ccc(OC)c(O)c1)C2=O (stereo not shown) [Compound 15b],6.8,1.6,–
2.3,8.2,COC(=O)c1cc(/C=C2\COc3cc(OC)c(OC)c(OC)c3C2=O)ccc1O [Compound 11o],2,4.7,–
32,310,C#CCOc1cc(/C=C2\COc3cc(OC)c(OC)c(OC)c3C2=O)ccc1OC [Compound 11g],21,39,–
13,13.7,COc1cc2c(c(OC)c1OC)C(=O)/C(=C/c1ccc(O)c(O)c1)CO2 [Compound 11n],4.1,6.4,–
